The values that follow are results of earlier work, collected in US20080095865A1, “COMPOSITION AND METHOD FOR INCREASING LEAN MUSCLE MASS, DECREASING MUSCLE LOSS, INCREASING MUSCLE STRENGTH AND IMPROVING ATHLETIC PERFORMANCE” (APLODAN FORMULATIONS LTD., priority 2004, published 2008).

The conditions of series [1]: supplemented rats.
For series [2] the following is noted: hamster, in vivo.
For series [3] the following is noted: as a supplement.
For series [4] the following is noted: patients with inadequate coronary blood flow.
The conditions of series [5]: unaffected in placebo group.
For series [6] the following is noted: elderly subjects, compared to controls.

As for `O=C(O)CCCC[C@@H]1CCSS1` (stereo in doubt) [Alpha Lipoic Acid, 1,2-dithiolane-3-pentanoic acid], the “increase of metabolic clearance rate of glucose” value (diabetics) is 50%. In addition, the “body's utilization of blood sugar” value (type II diabetics) is listed as “significantly increase”. The “age-related changes in mitochondrial function, accumulated oxidative damage and metabolic rate” value in series [1] was “improved”. In addition, in series [2], the high-density lipoproteins entry is on record as “beneficial increase in high-density lipoproteins”.
Consider `CN(CCOP(=O)(O)O)C(=N)N` [Creatinol O-Phosphate], for which the “tolerance and side effects” value in series [3] was “well tolerated and without side effects”. Moreover, the cardiac parameters entry in series [4] was “successfully used to improve cardiac parameters”. For the same molecule, the hand-grip strength result in series [5] is recorded as “improved”. For the same molecule, in series [6], the muscular performance entry is “improved muscular performance as compared to controls”.
